This note sets out measurements from patent US9611278B2 (Merck Sharp & Dohme Corp., priority 2013, dated 2017).

In this assay the target is T1, sGC α1/β1 heterodimer stably expressed in CHO-K1 cells (CHO-K1/sGC) (Homo sapiens, UniProt Q02108+Q02153).
T1 construct: expressed in transfected cells
T1 sequence (Q02108 1-690): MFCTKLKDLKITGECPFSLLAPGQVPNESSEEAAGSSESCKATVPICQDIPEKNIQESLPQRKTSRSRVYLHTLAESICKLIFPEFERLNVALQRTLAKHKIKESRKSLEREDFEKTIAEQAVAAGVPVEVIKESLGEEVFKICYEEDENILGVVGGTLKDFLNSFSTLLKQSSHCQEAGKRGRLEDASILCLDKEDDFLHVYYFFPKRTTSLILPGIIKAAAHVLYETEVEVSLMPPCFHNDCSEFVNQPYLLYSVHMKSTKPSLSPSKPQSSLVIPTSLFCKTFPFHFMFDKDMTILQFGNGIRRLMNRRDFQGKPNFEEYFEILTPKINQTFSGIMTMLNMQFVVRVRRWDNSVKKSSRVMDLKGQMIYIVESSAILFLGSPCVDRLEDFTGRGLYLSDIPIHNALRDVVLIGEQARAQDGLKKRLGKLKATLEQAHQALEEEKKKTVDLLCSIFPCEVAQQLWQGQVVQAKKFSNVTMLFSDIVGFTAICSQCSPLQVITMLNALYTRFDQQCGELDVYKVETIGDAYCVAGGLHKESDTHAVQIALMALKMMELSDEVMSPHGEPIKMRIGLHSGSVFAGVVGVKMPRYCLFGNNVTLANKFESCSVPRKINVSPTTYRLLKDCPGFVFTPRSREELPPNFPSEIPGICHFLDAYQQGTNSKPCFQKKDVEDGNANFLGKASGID
T1 sequence (Q02153 1-619): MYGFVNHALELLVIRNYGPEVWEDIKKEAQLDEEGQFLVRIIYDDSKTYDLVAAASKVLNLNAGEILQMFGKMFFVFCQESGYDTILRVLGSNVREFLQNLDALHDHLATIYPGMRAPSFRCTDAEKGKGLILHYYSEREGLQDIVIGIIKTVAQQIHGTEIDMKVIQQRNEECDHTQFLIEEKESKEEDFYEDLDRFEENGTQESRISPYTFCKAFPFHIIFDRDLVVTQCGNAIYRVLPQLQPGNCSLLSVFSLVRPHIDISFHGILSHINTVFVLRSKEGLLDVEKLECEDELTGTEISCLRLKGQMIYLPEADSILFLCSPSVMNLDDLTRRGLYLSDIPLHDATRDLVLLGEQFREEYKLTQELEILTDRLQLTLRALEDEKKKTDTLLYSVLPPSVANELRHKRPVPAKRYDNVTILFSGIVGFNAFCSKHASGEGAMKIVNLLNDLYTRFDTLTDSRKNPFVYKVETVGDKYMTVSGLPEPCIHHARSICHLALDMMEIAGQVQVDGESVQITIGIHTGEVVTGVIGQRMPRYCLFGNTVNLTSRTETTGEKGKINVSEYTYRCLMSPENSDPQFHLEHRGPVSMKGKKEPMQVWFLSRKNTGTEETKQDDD
In words: Cell-based sGC Functional Assay (CASA Assay). The following applies: for Emax: CHO-K1, activation as percentage of maximum cGMP production of Compound A (set to 100%), read-out: % Act.; for EC50: inflection point of cGMP generation in CHO-K1/sGC cells, 4P fit, 1 hr at 37° C., read-out: IP. From the text:
sGC is a heme-containing enzyme that converts GTP to secondary messenger cGMP. Increases in cGMP levels affect several physiological processes including vasorelaxation through multiple downstream pathways. […] Heme-dependent activators (HDAs) preferentially activate sGC containing a ferrous heme group. To determine the effect of sGC activators on enzyme activity, the CASA assay was developed to monitor the generation of cGMP in a cell line that stably expresses the heterodimeric sGC protein.
A CHO-K1 cell line stably expressing the sGC α1/β1 heterodimer was generated using a standard transfection protocol. CHO-K1 cells were transfected with plasmids pIREShyghsGCα1 and pIRESneo-hsGCβ1 simultaneously using FUGENE reagent. Clones that stably express both subunits were selected with hygromycin and neomycin for ˜2 weeks. Clone #7 was chosen for the assay and was designated CHO-K1/sGC. CHO-K1/sGC cells were maintained in F-K12 medium containing 10% heat-inactivated Fetal Bovine Serum (FBS), 100 μg/mL penicillin/streptomycin, 0.5 mg/mL hygromycin and 0.25 mg/mL G418. The cells were then cryopreserved in LN2. On the day of the assay, cells thawed and resuspended in EBSS Assay Buffer (EAB, Sigma, E3024) supplemented with 5 mM MgCl2, 10 mM HEPES (4-(2-hydroxyethyl)piperazine-1-ethanesulfonic acid) and 0.05% BSA (bovine serum albumin) and cell density was then adjusted to 4×10^5/mL with EAB. IBMX (3-isobutyl-1-methylxanthin, 0.5 mM) was added to inhibit degradation of cGMP. Compounds were diluted from DMSO stock solutions and added to the assay at a final DMSO concentration of 2.5%. Cells were incubated with compounds in the presence and absence of 1 μM of Diethylenetriamine/nitric oxide adduct (DETA-NO; Sigma, 17018) for 1 hr at 37° C. At the end of the incubation period, the reaction was terminated and the cells were lysed with the detection reagents from Cisbio Kits. The level of intracellular cGMP was determined using an HTRF-based assay kit (CisBio, 62GM2PEC), which detects the displacement of a fluorescence labeled cGMP from its specific antibody. The cGMP produced by test compounds was directly compared to the maximum cGMP production (this value was set to equal 100% activation.) of the published sGC-HDA Compound A:
(Example 1 in WO 2010/065275, published Jun. 10, 2010). The test compounds' activity were then expressed as a percentage of Compound A, the standard in every experiment. This percent activation was calculated either in the presence or absence of DETA-NO which was then plotted. IP and maximum fold induction was derived using ADA analysis software for 4P fit.

Turning to `[2H]C([2H])([2H])n1ncc2c(-c3nc(N)c4c(n3)NC(=O)C4(C)c3ccc4cccnc4c3)nc(CCC(F)(F)C(F)(F)F)nc21` (centres unmarked) [Example 13, 4-Amino-5-methyl-2-(1-(methyl-d3)-6-(3,3,4,4,4-pentafluorobutyl)-1H-pyrazolo[3,4-d]pyrimidin-4-yl)-5-(quinolin-7-yl)-5,7-dihydro-6H-pyrrolo[2,3-d]pyrimidin-6-one], the Emax stood at 89% and the EC50 turned out to be 0.029 µM.

Turning to `[2H]C([2H])([2H])n1ncc2c(-c3nc(N)c4c(n3)NC(=O)C4(C)c3cncc(OC)c3)nc(CCC(F)(F)C(F)(F)F)nc21` (centres unmarked) [Example 14, 4-Amino-5-(5-methoxypyridin-3-yl)-5-methyl-2-(1-(methyl-d3)-6-(3,3,4,4,4-pentafluorobutyl)-1H-pyrazolo[3,4-d]pyrimidin-4-yl)-5,7-dihydro-6H-pyrrolo[2,3-d]pyrimidin-6-one], the Emax came out at 131% and the EC50 came out at 0.709 µM.

Consider `Cn1cc(C2(C3CC3)C(=O)Nc3nc(-c4nc(CCC(F)(F)C(F)(F)F)nc5c4cnn5C)nc(N)c32)cn1` (centres unmarked) [Example 15, 4-Amino-5-cyclopropyl-5-(1-methyl-1H-pyrazol-4-yl)-2-(1-methyl-6-(3,3,4,4,4-pentafluorobutyl)-1H-pyrazolo[3,4-d]pyrimidin-4-yl)-5,7-dihydro-6H-pyrrolo[2,3-d]pyrimidin-6-one], for which the Emax came out at 100% and the EC50 is 0.475 µM.

For `Cn1ncc2c(-c3nc(N)c4c(n3)NC(=O)C4(c3cnoc3)C3CC3)nc(CCC(F)(F)C(F)(F)F)nc21` (centres unmarked) [Example 16, 4-Amino-5-cyclopropyl-5-(isoxazol-4-yl)-2-(1-methyl-6-(3,3,4,4,4-pentafluorobutyl)-1H-pyrazolo[3,4-d]pyrimidin-4-yl)-5,7-dihydro-6H-pyrrolo[2,3-d]pyrimidin-6-one], the Emax is 107% and the EC50 was found to be 0.16 µM.

For `CCC1(c2ccc(OC)nc2)C(=O)Nc2nc(-c3nc(CCC(F)(F)C(F)(F)F)nc4c3cnn4C)nc(N)c21` (centres unmarked) [Example 17, 4-Amino-5-ethyl-5-(6-methoxypyridin-3-yl)-2-(1-methyl-6-(3,3,4,4,4-pentafluorobutyl)-1H-pyrazolo[3,4-d]pyrimidin-4-yl)-5,7-dihydro-6H-pyrrolo[2,3-d]pyrimidin-6-one], the Emax was found to be 116% and the EC50 turned out to be 0.122 µM.

Regarding `[2H]C([2H])([2H])n1ncc2c(-c3nc(N)c4c(n3)NC(=O)C4(C)c3ccnc(C(=O)OC)c3)nc(CCC(F)(F)C(F)(F)F)nc21` (centres unmarked) [Example 18, Methyl 4-(4-amino-5-methyl-2-(1-(methyl-d3)-6-(3,3,4,4,4-pentafluorobutyl)-1H-pyrazolo[3,4-d]pyrimidin-4-yl)-6-oxo-6,7-dihydro-5H-pyrrolo[2,3-d]pyrimidin-5-yl)picolinate], the Emax was found to be 88% and the EC50 worked out at 0.411 µM.

Take `Cc1nc(C2(C)C(=O)Nc3nc(-c4nc(CCC(F)(F)C(F)(F)F)nc5c4cnn5C)nc(N)c32)no1` (centres unmarked) [Example 20, 4-Amino-5-methyl-5-(5-methyl-1,2,4-oxadiazol-3-yl)-2-(1-methyl-6-(3,3,4,4,4-pentafluorobutyl)-1H-pyrazolo[3,4-d]pyrimidin-4-yl)-5,7-dihydro-6H-pyrrolo[2,3-d]pyrimidin-6-one]: the Emax worked out at 132% and the EC50 was 0.103 µM.

Take `Cn1ncc2c(-c3nc(N)c4c(n3)NC(=O)C4(C)c3ccccn3)nc(CCCC(F)(F)F)nc21` (centres unmarked) [Example 21, 4-Amino-5-methyl-2-(1-methyl-6-(4,4,4-trifluorobutyl)-1H-pyrazolo[3,4-d]pyrimidin-4-yl)-5-(pyridin-2-yl)-5,7-dihydro-6H-pyrrolo[2,3-d]pyrimidin-6-one]: the Emax amounted to 111% and the EC50 turned out to be 0.138 µM.

Take `Cn1ncc2c(-c3nc(N)c4c(n3)NC(=O)C4(C)c3ccccn3)nc(CCC(F)(F)C(F)(F)F)nc21` (centres unmarked) [Example 22, 4-Amino-5-methyl-2-(1-methyl-6-(3,3,4,4,4-pentafluorobutyl)-1H-pyrazolo[3,4-d]pyrimidin-4-yl)-5-(pyridin-2-yl)-5,7-dihydro-6H-pyrrolo[2,3-d]pyrimidin-6-one]: the Emax is 103% and the EC50 was found to be 0.071 µM.

Turning to `Cn1cc(C2(C)C(=O)Nc3nc(-c4nc(CCC(F)(F)C(F)(F)F)nc5c4cnn5C)nc(N)c32)cn1` (centres unmarked) [Example 23, 4-Amino-5-methyl-5-(1-methyl-1H-pyrazol-4-yl)-2-(1-methyl-6-(3,3,4,4,4-pentafluorobutyl)-1H-pyrazolo[3,4-d]pyrimidin-4-yl)-5,7-dihydro-6H-pyrrolo[2,3-d]pyrimidin-6-one], the Emax was 88% and the EC50 stood at 0.435 µM.

Regarding `[2H]C([2H])([2H])n1ncc2c(-c3nc(N)c4c(n3)NC(=O)C4(c3cnn(C)c3)C3CC3)nc(CCC(F)(F)C(F)(F)F)nc21` (centres unmarked) [Example 24, 4-Amino-5-cyclopropyl-5-(1-methyl-1H-pyrazol-4-yl)-2-(1-(methyl-d3)-6-(3,3,4,4,4-pentafluorobutyl)-1H-pyrazolo[3,4-d]pyrimidin-4-yl)-5,7-dihydro-6H-pyrrolo[2,3-d]pyrimidin-6-one], the Emax was 84% and the EC50 is 0.885 µM.

Consider `CC(C)n1cc(C2(C3CC3)C(=O)Nc3nc(-c4nc(CCC(F)(F)C(F)(F)F)nc5c4cnn5C)nc(N)c32)cn1` (centres unmarked) [Example 26, 4-Amino-5-cyclopropyl-5-(1-isopropyl-1H-pyrazol-4-yl)-2-(1-methyl-6-(3,3,4,4,4-pentafluorobutyl)-1H-pyrazolo[3,4-d]pyrimidin-4-yl)-5,7-dihydro-6H-pyrrolo[2,3-d]pyrimidin-6-one], for which the Emax is 72% and the EC50 stood at 0.23 µM.

In the case of `Cn1ncc2c(-c3nc(N)c4c(n3)NC(=O)C4(c3ncco3)C3CC3)nc(CCC(F)(F)C(F)(F)F)nc21` (centres unmarked) [Example 28, 4-Amino-5-cyclopropyl-2-(1-methyl-6-(3,3,4,4,4-pentafluorobutyl)-1H-pyrazolo[3,4-d]pyrimidin-4-yl)-5-(oxazol-2-yl)-5,7-dihydro-6H-pyrrolo[2,3-d]pyrimidin-6-one], the Emax worked out at 126% and the EC50 came out at 0.891 µM.
